Where “and” joins values, the source holds several entries; their conditions need not be identical. Identical values can stand only once. Like-named read-outs stand apart in the source and are kept apart here.
What was measured:
[1] = tested on: voltage-gated Ca^2+ channels (VGCC); assay: Calcium channel antagonist assay (K+-evoked cytosolic Ca2+, Fluo-4); type: cell-based
Protocol: The cytosolic Ca^2+ has been measured in SH-SY5Y cells. SH-SY5Y cells were maintained similarly to what was previously described^30. Free cytosolic Ca^2+ was measured using the fluorescent Ca^2+ indicator Fluo-4/AM (Fluo-4 acetomethoxyester). SH-SY5Y cells were seeded onto 96-well black plates at a density of 10^5 cells per well, achieving confluence after 48 h. Cells were washed with Krebs-Hepes solution (KH, in mM: 144 NaCl, 5.9 KCl, 1.2 MgCl2, 2 CaCl2, 11 D-glucose, 10 HEPES, pH 7.4). Cells were loaded with 10 µM Fluo-4/AM and 0.2% pluronic acid in KH and incubated for 45 min at 37 °C in the dark. Then, cells were washed twice with KH to remove the excess of probe. Tested compounds were incubated 10 min before K+ 70 mM was applied to evoke the increment of cytosolic Ca^2+. To normalize Fluo-4 signals, Triton X-100 (5%) and 1 M MnCl2 were applied to register both maximal and minimal fluorescence, respectively. The experiments were analyzed at excitation and emission wavelengths of 485 and 520 nm, respectively, and fluorescence was measured in a fluorescence microplate reader (FLUOstar Optima, BMG, Germany). Data were calculated as a percentage of Fmax - Fmin.
The blocking effect of the depolarization-induced Ca^2+ uptake was investigated in SH-SY5Y neuroblastoma cells stimulated with an extracellular concentration of K+ 70 mM, which induces the cell Ca^2+ levels elevation by opening voltage-gated Ca^2+ channels (VGCC), monitored with the Ca^2+-sensitive fluorescent dye Fluo-4. Nifedipine was used as positive standard.

[2] = molecular target: T1, Human red-blood cell acetylcholinesterase (hAChE; EC 3.1.1.7) (Homo sapiens, UniProt P22303); assay: biochemical; conditions: pH 7.4, 37 °C, mean ± SEM, read-out: AChE (IC50 µM)
T1 construct: Human red-blood cell acetylcholinesterase; purchased Sigma-Aldrich (Prague, Czech Republic); host or cells: human red blood cells
T1 sequence (P22303 32-617 isoform P22303-2 limits assumed): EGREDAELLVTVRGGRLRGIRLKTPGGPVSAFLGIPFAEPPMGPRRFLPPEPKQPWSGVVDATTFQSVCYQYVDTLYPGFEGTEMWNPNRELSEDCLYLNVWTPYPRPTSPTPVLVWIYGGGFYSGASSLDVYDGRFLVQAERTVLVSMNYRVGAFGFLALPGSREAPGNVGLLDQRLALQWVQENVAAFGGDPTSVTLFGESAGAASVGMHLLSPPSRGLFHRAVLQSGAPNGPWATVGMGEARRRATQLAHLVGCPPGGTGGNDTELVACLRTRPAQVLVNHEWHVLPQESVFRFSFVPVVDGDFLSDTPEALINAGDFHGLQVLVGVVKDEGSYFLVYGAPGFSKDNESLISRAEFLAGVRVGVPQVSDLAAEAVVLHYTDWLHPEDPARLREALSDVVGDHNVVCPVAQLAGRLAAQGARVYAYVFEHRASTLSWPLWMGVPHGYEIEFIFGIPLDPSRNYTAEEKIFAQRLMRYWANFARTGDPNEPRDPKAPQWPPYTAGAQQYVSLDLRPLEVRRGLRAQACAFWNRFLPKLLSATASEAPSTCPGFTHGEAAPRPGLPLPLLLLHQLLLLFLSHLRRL
Protocol: The AChE and BuChE inhibitory activity of the tested compounds was determined using a modified Ellman's method^31, 32.Human red-blood cell acetylcholinesterase (hAChE; EC 3.1.1.7), and human recombinant butyrylcholinesterase (hBuChE; EC 3.1.1.8), 5,5'-dithiobis(2-nitrobenzoic acid) (Ellman's reagent, DTNB), phosphate buffer (PB, pH 7.4), acetylthiocholine (ATC), and butyrylthiocholine (BTC), were purchased from Sigma-Aldrich (Prague, Czech Republic). Nunc polystyrene 96-well microplates with flat-bottom shape (ThermoFisher Scientific, USA) were used for the measurement and all the assay were carried out in 0.1 M KH2PO4/K2HPO4 buffer, pH 7.4. Enzyme solution was prepared at activity 2.0 units/mL in 2 mL aliquots. The assay mixture (100 µL) consisted of 40 µL of 0.1 M phosphate buffer (pH 7.4), 20 µL of 0.01 M DTNB, 10 µL of enzyme, and 20 µL of 0.01 M substrate (ATC iodide solution). Tested compounds were dissolved first in methanol (BIGI 23 in DMSO) and then further diluted by assay buffer to the final concentration. […] Enzyme with the inhibitor was preincubated for 5 min in the assay mixture and then the reaction was started by addition of 20 µL of substrate (ATC for AChE, BTC for BuChE). […] Each concentration was assayed in triplicate. The obtained data were used to compute the percentage inhibition (I; Equation 1): I = 1−(ΔAi)/(ΔA0) [%] [formula] ΔAi indicates the absorbance change provided by cholinesterase exposed to AChE inhibitors and ΔA0 indicates absorbance change caused by intact cholinesterase (phosphate buffer was used instead of AChE inhibitor solution).

[3] = molecular target: T2, human recombinant butyrylcholinesterase (hBuChE; EC 3.1.1.8) (Homo sapiens, UniProt P06276); assay: Cholinesterase inhibition in vitro assay (modified Ellman's method), BuChE; type: biochemical; conditions: pH 7.4, 37 °C, mean ± SEM, read-out: BChE (IC50 µM)
T2 construct: purchased Sigma-Aldrich (Prague, Czech Republic)
T2 sequence (P06276 29-602): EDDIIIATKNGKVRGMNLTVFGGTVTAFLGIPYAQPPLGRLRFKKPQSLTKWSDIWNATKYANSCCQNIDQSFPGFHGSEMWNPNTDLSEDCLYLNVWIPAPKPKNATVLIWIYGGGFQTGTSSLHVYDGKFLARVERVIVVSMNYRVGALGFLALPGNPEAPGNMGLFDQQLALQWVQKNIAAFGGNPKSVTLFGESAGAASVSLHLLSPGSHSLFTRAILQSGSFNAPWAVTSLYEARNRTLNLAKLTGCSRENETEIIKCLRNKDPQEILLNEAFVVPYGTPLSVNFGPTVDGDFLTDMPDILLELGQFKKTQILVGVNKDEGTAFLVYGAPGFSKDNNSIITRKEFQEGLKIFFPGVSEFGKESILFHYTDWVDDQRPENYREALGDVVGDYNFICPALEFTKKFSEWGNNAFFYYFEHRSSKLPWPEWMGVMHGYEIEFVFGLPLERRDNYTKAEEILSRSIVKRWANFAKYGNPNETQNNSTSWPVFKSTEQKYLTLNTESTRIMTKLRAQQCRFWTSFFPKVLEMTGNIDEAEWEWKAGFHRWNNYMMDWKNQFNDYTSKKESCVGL
Protocol: The AChE and BuChE inhibitory activity of the tested compounds was determined using a modified Ellman's method^31, 32.Human red-blood cell acetylcholinesterase (hAChE; EC 3.1.1.7), and human recombinant butyrylcholinesterase (hBuChE; EC 3.1.1.8), 5,5'-dithiobis(2-nitrobenzoic acid) (Ellman's reagent, DTNB), phosphate buffer (PB, pH 7.4), acetylthiocholine (ATC), and butyrylthiocholine (BTC), were purchased from Sigma-Aldrich (Prague, Czech Republic). Nunc polystyrene 96-well microplates with flat-bottom shape (ThermoFisher Scientific, USA) were used for the measurement and all the assay were carried out in 0.1 M KH2PO4/K2HPO4 buffer, pH 7.4. Enzyme solution was prepared at activity 2.0 units/mL in 2 mL aliquots. The assay mixture (100 µL) consisted of 40 µL of 0.1 M phosphate buffer (pH 7.4), 20 µL of 0.01 M DTNB, 10 µL of enzyme, and 20 µL of 0.01 M substrate (ATC iodide solution). Tested compounds were dissolved first in methanol (BIGI 23 in DMSO) and then further diluted by assay buffer to the final concentration. […]. […] Enzyme with the inhibitor was preincubated for 5 min in the assay mixture and then the reaction was started by addition of 20 µL of substrate (ATC for AChE, BTC for BuChE). The enzyme activity was determined by measuring the increase in absorbance at 412 nm at 37 °C at 2 min intervals using a Multi-mode microplate reader Synergy 2 (Vermont, USA). Each concentration was assayed in triplicate. The obtained data were used to compute the percentage inhibition (I; Equation 1): I = 1−(ΔAi)/(ΔA0) [%] [formula] ΔAi indicates the absorbance change provided by cholinesterase exposed to AChE inhibitors and ΔA0 indicates absorbance change caused by intact cholinesterase (phosphate buffer was used instead of AChE inhibitor solution). […] Calculations were performed using software Microsoft Excel (Redmont, WA, USA) and GraphPad Prism version 5.02 for Windows, GraphPad Software, San Diego, CA, USA.

[4] = Oxygen Radical Absorbance Capacity (ORAC-FL) assay; conditions: Trolox equivalents (µmol of Trolox equivalent/µmol of compound)
Protocol: The radical scavenging capacity of the TFAHs was determined by the ORAC-FL method using fluorescein as a fluorescent probe^33,34. (±)-6-Hydroxy-2,5,7,8-tetramethylchromane-2-carboxylic acid (Trolox), fluorescein (FL) and 2,2'-azobis(amidinopropane) dihydrochloride (AAPH) were purchased from Sigma-Aldrich. A Varioskan Flash plate reader with built-in injectors (Thermo Scientific) was used. The reaction was carried out at 37 °C in 75 mM phosphate buffer (pH= 7.4), and the final volume reaction mixture was 200 µL. The tested compounds and Trolox standard were dissolved in DMSO to 10 mM and further diluted in 75 mM phosphate buffer (pH= 7.4). The final concentrations were 0.1-1 µM for the tested compounds and 1-8 µM for Trolox standard. The blank was composed of 120 µL of FL, 60 µL of AAPH and 20 µL of phosphate buffer (pH=7.4) and was added in each assay.
The net AUC corresponding to a sample was calculated as follows: Net AUC = AUCantioxidant −AUCblank . [formula]
Regression equations were calculated by plotting the net AUC against the antioxidant concentration. The ORAC value was obtained by dividing the slope of the latter curve between the slope of the Trolox curve obtained in the same assay. Final ORAC values were expressed as µmol of Trolox equivalent/µmol of TFAH.

[5] = SH-SY5Y cells, K+ 70 mM, mean ± SEM, read-out: IC50 (µM) Calcium channels blockade

Compound	IC50 [1, 5] [µM]	IC50 [2] [µM]	IC50 [3] [µM]	ORAC [4]	IC50 ([1]; read-out: IC50 (µM) Calcium channels blockade, SH-SY5Y cells, K+ 70 mM, mean ± SEM) [µM]
CCOC(=O)C1=C(C)N(CCCC2CCN(Cc3ccccc3)CC2)C(=O)NC1c1coc2c(Cl)cc(Cl)cc2c1=O (stereo not shown) [BIGI-3m, ethyl 1-(3-(1-benzylpiperidin-4-yl)propyl)-4-(6,8-dichloro-4-oxo-4H-chromen-3-yl)-6-methyl-2-oxo-1,2,3,4-tetrahydropyrimidine-5-carboxylate]	5 ± 2	0.34 ± 0.02	14.4 ± 1.2	3.29± 0.10 TE	
CCOC(=O)C1=C(C)N(CCCC2CCN(Cc3ccccc3)CC2)C(=O)NC1c1coc2ccc(C(C)C)cc2c1=O (stereo not shown) [BIGI-3n, ethyl 1-(3-(1-benzylpiperidin-4-yl)propyl)-4-(6-isopropyl-4-oxo-4H-chromen-3-yl)-6-methyl-2-oxo-1,2,3,4-tetrahydropyrimidine-5-carboxylate]	1.7 ± 0.4	0.58 ± 0.02	4.35 ± 0.23	2.45± 0.04 TE	
COc1cc(/C=C/C(=O)O)ccc1O [Ferulic acid, reference compound]				3.7 TE and 3.7 ± 0.2 TE	
CCOC(=O)C1=C(C)N(CCC2CCN(Cc3ccccc3)CC2)C(=O)NC1c1coc2ccccc2c1=O (stereo not shown) [BIGI-3d, ethyl 1-(2-(1-benzylpiperidin-4-yl)ethyl)-6-methyl-2-oxo-4-(4-oxo-4H-chromen-3-yl)-1,2,3,4-tetrahydropyrimidine-5-carboxylate]	9 ± 2	0.23 ± 0.01	6.58 ± 0.34	2.53 ± 0.17 TE	
CCOC(=O)C1=C(C)N(CC2CCN(Cc3ccccc3)CC2)C(=O)NC1c1coc2ccc(Br)cc2c1=O (stereo not shown) [BIGI-3b, ethyl 1-((1-benzylpiperidin-4-yl)methyl)-4-(6-bromo-4-oxo-4H-chromen-3-yl)-6-methyl-2-oxo-1,2,3,4-tetrahydropyrimidine-5-carboxylate]	6 ± 3			2.06 ± 0.17 TE	
CCOC(=O)C1=C(C)N(CC2CCN(Cc3ccccc3)CC2)C(=O)NC1c1coc2cc(CC)ccc2c1=O (stereo not shown) [BIGI-3c, ethyl 1-((1-benzylpiperidin-4-yl)methyl)-4-(7-ethyl-4-oxo-4H-chromen-3-yl)-6-methyl-2-oxo-1,2,3,4-tetrahydropyrimidine-5-carboxylate]	3 ± 0.9	6.08 ± 0.38	36.1 ± 3.1	3.51 ± 0.09 TE	
CCOC(=O)C1=C(C)N(CCC2CCN(Cc3ccccc3)CC2)C(=O)NC1c1coc2cc(C)c(Cl)cc2c1=O (stereo not shown) [BIGI-3g, ethyl 1-(2-(1-benzylpiperidin-4-yl)ethyl)-4-(6-chloro-7-methyl-4-oxo-4H-chromen-3-yl)-6-methyl-2-oxo-1,2,3,4-tetrahydropyrimidine-5-carboxylate]	1.7 ± 0.6	0.29 ± 0.01	15.7 ± 0.9	2.56 ± 0.13 TE	
CCOC(=O)C1=C(C)N(CCCC2CCN(Cc3ccccc3)CC2)C(=O)NC1c1coc2ccccc2c1=O (stereo not shown) [BIGI-3i, ethyl 1-(3-(1-benzylpiperidin-4-yl)propyl)-6-methyl-2-oxo-4-(4-oxo-4H-chromen-3-yl)-1,2,3,4-tetrahydropyrimidine-5-carboxylate]	8 ± 1	0.15	4.29 ± 0.09	3.09 ± 0.07 TE	
COC(=O)C1=C(C)NC(C)=C(C(=O)OC)C1c1ccccc1[N+](=O)[O-] [Nifedipine, reference compound]					6.2 ± 0.2
CCOC(=O)C1=C(C)N(CCCC2CCN(Cc3ccccc3)CC2)C(=O)NC1c1coc2cc(C)c(Cl)cc2c1=O (stereo not shown) [BIGI-3l, ethyl 1-(3-(1-benzylpiperidin-4-yl)propyl)-4-(6-chloro-7-methyl-4-oxo-4H-chromen-3-yl)-6-methyl-2-oxo-1,2,3,4-tetrahydropyrimidine-5-carboxylate]	3.2 ± 0.2	0.17 ± 0.01	6.26 ± 0.31	1.68 ± 0.18 TE	
CCOC(=O)C1=C(C)N(CC2CCN(Cc3ccccc3)CC2)C(=O)NC1c1coc2ccccc2c1=O (stereo not shown) [BIGI-3a, ethyl 1-((1-benzylpiperidin-4-yl)methyl)-6-methyl-2-oxo-4-(4-oxo-4H-chromen-3-yl)-1,2,3,4-tetrahydropyrimidine-5-carboxylate]	14 ± 3		14.8 ± 0.7	3.29 ± 0.07 TE	
CCOC(=O)C1=C(C)N(CCCC2CCN(Cc3ccccc3)CC2)C(=O)NC1c1coc2ccc(Br)cc2c1=O (stereo not shown) [BIGI-3j, ethyl 1-(3-(1-benzylpiperidin-4-yl)propyl)-4-(6-bromo-4-oxo-4H-chromen-3-yl)-6-methyl-2-oxo-1,2,3,4-tetrahydropyrimidine-5-carboxylate]	3.8 ± 0.1	0.18 ± 0.01	6.51 ± 0.45	3.24 ± 0.02 TE	
CCOC(=O)C1=C(C)N(CCC2CCN(Cc3ccccc3)CC2)C(=O)NC1c1coc2cc(CC)ccc2c1=O (stereo not shown) [BIGI-3f, ethyl 1-(2-(1-benzylpiperidin-4-yl)ethyl)-4-(7-ethyl-4-oxo-4H-chromen-3-yl)-6-methyl-2-oxo-1,2,3,4-tetrahydropyrimidine-5-carboxylate]	2.2 ± 0.6	0.3 ± 0.01	5.96 ± 0.22	2.20 ± 0.05 TE	
